Laboratory results as given in US20160320408A1, “METHODS OF T CELL EPITOPE PROFILING, MAKING T CELL COMPOSITIONS, AND TREATING DISEASES” (priority 2013, published 2016).

How the values were obtained:
Assay type in all cases: cell-based, human
[1] = tested on: PBMC from a healthy donor
donor cells (PBMC) = tested on: donor cells (PBMC)
[2] = tested on: PBMC from a healthy donor; remark: listed apart in the source

With NLVPMVATV [CMVpp65] the “detection of IFNγ secreting T-cells, direct ex vivo ELISpot (in words)” value [1] was “readily detectable”.

For IDKISDVSTIVPYIGPALNI [TT4], the “generation of peptide-reactive T-cell line (in words)” value (donor cells (PBMC)) was “successfully generated” and the “IFNγ response (in words)” value [2] was “only one operator (HK) detecting a robust response”.

With DIKNDLYEKTLNDYKAIANK [TT1] the “IFNγ over a positivity threshold set at 2.5-fold above the negative control (no peptide) cultures” value [2] was 0 pg/mL.

With IVVYNLQSKITLPNDRTTPV [TT2] the “IFNγ over a positivity threshold set at 2.5-fold above the negative control (no peptide) cultures” value [2] was 0 pg/mL.
